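Abbreviation: GI50, concentration required for 50% inhibition of growth. Definition used: TGI = concentration required for complete inhibition of growth.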
Columns and labels:
Test in all cases: growth of human tumour cells (NCI), 384-well format
SK-MEL-5 melanoma = test system: SK-MEL-5 melanoma
786-0 renal = test system: 786-0 renal
MDA-MB-468 breast = test system: MDA-MB-468 breast
NCI-H226 lung = test system: NCI-H226 lung
HS 578T breast = test system: HS 578T breast
NCI/ADR-RES ovarian = test system: NCI/ADR-RES ovarian
NCI-H23 lung = test system: NCI-H23 lung
A549 NSCLC = test system: A549 NSCLC
RXF 393 renal = test system: RXF 393 renal
SF-295 CNS = test system: SF-295 CNS
OVCAR-4 ovarian = test system: OVCAR-4 ovarian
LOX IMVI melanoma = test system: LOX IMVI melanoma
SF-539 CNS = test system: SF-539 CNS
MALME-3M melanoma = test system: MALME-3M melanoma
MDA-MB-231 breast = test system: MDA-MB-231 breast
TK-10 renal = test system: TK-10 renal
COLO 205 colon = test system: COLO 205 colon
EKVX NSCLC = test system: EKVX NSCLC
A498 renal = test system: A498 renal
CCRF-CEM leukemia = test system: CCRF-CEM leukemia
KM12 colon = test system: KM12 colon
HT29 colon = test system: HT29 colon
CAKI-1 renal = test system: CAKI-1 renal
HOP-92 NSCLC = test system: HOP-92 NSCLC
UACC-257 melanoma = test system: UACC-257 melanoma
OVCAR-8 ovarian = test system: OVCAR-8 ovarian
IGROV1 ovarian = test system: IGROV1 ovarian
NCI-H322M lung = test system: NCI-H322M lung
HL-60(TB) leukemia = test system: HL-60(TB) leukemia
MOLT-4 leukemia = test system: MOLT-4 leukemia
OVCAR-3 ovarian = test system: OVCAR-3 ovarian
T-47D breast = test system: T-47D breast
BT-549 breast = test system: BT-549 breast
SW-620 colon = test system: SW-620 colon
M14 melanoma = test system: M14 melanoma
NCI-H522 lung = test system: NCI-H522 lung
SK-MEL-28 melanoma = test system: SK-MEL-28 melanoma
NCI-H460 NSCLC = test system: NCI-H460 NSCLC
MCF7 breast = test system: MCF7 breast
K-562 leukemia = test system: K-562 leukemia
DU-145 prostate = test system: DU-145 prostate
ACHN renal = test system: ACHN renal
SNB-19 CNS = test system: SNB-19 CNS
HOP-62 NSCLC = test system: HOP-62 NSCLC
PC-3 prostate = test system: PC-3 prostate
MDA-MB-435 melanoma = test system: MDA-MB-435 melanoma
UACC-62 melanoma = test system: UACC-62 melanoma
UO-31 renal = test system: UO-31 renal
HCT-116 colon = test system: HCT-116 colon
SK-OV-3 ovarian = test system: SK-OV-3 ovarian
SN12C renal = test system: SN12C renal
SF-268 CNS = test system: SF-268 CNS
U251 glioblastoma = test system: U251 glioblastoma
HCT-15 colon = test system: HCT-15 colon
OVCAR-5 ovarian = test system: OVCAR-5 ovarian
HCC-2998 colon = test system: HCC-2998 colon
SNB-75 CNS = test system: SNB-75 CNS
RPMI-8226 leukemia = test system: RPMI-8226 leukemia

## O=C(Nc1ccc(-c2ccnc(Nc3ccc(N4CCOCC4)cc3)n2)cc1)C1CCCN1 (stereo unspecified)
SK-MEL-5 melanoma
  GI50: 0.687 µM
  TGI: 14.2 µM
786-0 renal
  GI50: 2.82 µM
  TGI: 11.7 µM
MDA-MB-468 breast
  GI50: 2.02 µM
  TGI: 8.28 µM
NCI-H226 lung
  GI50: 1.24 µM
  TGI: 10.6 µM
HS 578T breast
  GI50: 4.67 µM
  TGI: 16.7 µM
NCI/ADR-RES ovarian
  GI50: 7.15 µM
  TGI: 21.9 µM
NCI-H23 lung
  GI50: 13.7 µM
  TGI: 27.1 µM
A549 NSCLC
  GI50: 4.69 µM
  TGI: 17.8 µM
RXF 393 renal
  GI50: 1.6 µM
  TGI: 12.1 µM
SF-295 CNS
  GI50: 7.63 µM
  TGI: 21.3 µM
OVCAR-4 ovarian
  GI50: 14.5 µM
  TGI: 28.7 µM
LOX IMVI melanoma
  GI50: 1.74 µM
  TGI: 7.69 µM
SF-539 CNS
  GI50: 3.89 µM
  TGI: 15.2 µM
MALME-3M melanoma
  GI50: 3.88 µM
  TGI: 15.4 µM
MDA-MB-231 breast
  GI50: 0.87 µM
  TGI: 17.3 µM
TK-10 renal
  GI50: 2.78 µM
  TGI: 19.2 µM
COLO 205 colon
  GI50: 2.68 µM
  TGI: 17.4 µM
EKVX NSCLC
  GI50: 11.9 µM
  TGI: 24.9 µM
A498 renal
  GI50: 6.48 µM
  TGI: 18.9 µM
CCRF-CEM leukemia
  GI50: 1.79 µM
  TGI: 10.1 µM
KM12 colon
  GI50: 8 µM
  TGI: 21.1 µM
HT29 colon
  GI50: 2.22 µM
  TGI: 10.8 µM
CAKI-1 renal
  GI50: 4.41 µM
  TGI: 15.6 µM
HOP-92 NSCLC
  GI50: 4.9 µM
  TGI: 20.2 µM
UACC-257 melanoma
  GI50: 2.46 µM
  TGI: 5.49 µM
OVCAR-8 ovarian
  GI50: 5.11 µM
  TGI: 18.1 µM
IGROV1 ovarian
  GI50: 3.52 µM
  TGI: 16.7 µM
NCI-H322M lung
  GI50: 10.4 µM
  TGI: 22.8 µM
HL-60(TB) leukemia
  GI50: 1.56 µM
  TGI: 3.22 µM
MOLT-4 leukemia
  GI50: 0.439 µM
  TGI: 1.56 µM
OVCAR-3 ovarian
  GI50: 12.8 µM
  TGI: 26.2 µM
T-47D breast
  GI50: 5.28 µM
  TGI: 15.8 µM
BT-549 breast
  GI50: 3.78 µM
  TGI: 14.1 µM
SW-620 colon
  GI50: 5.25 µM
  TGI: 16 µM
M14 melanoma
  GI50: 5.63 µM
  TGI: 18.2 µM
NCI-H522 lung
  GI50: 2.88 µM
  TGI: 6.72 µM
SK-MEL-28 melanoma
  GI50: 7.45 µM
  TGI: 20.5 µM
NCI-H460 NSCLC
  GI50: 1.65 µM
  TGI: 10.9 µM
MCF7 breast
  GI50: 4.63 µM
  TGI: 17.6 µM
K-562 leukemia
  GI50: 1.39 µM
  TGI: 10.9 µM
DU-145 prostate
  GI50: 4.54 µM
  TGI: 15.4 µM
ACHN renal
  GI50: 4.76 µM
  TGI: 17.6 µM
SNB-19 CNS
  GI50: 11.4 µM
  TGI: 26.6 µM
HOP-62 NSCLC
  GI50: 11.4 µM
  TGI: 24.7 µM
PC-3 prostate
  GI50: 5.86 µM
  TGI: 19.7 µM
MDA-MB-435 melanoma
  GI50: 7.37 µM
  TGI: 19.8 µM
UACC-62 melanoma
  GI50: 3.1 µM
  TGI: 16.8 µM
UO-31 renal
  GI50: 3.96 µM
  TGI: 15.8 µM
HCT-116 colon
  GI50: 1.5 µM
  TGI: 11.6 µM
SK-OV-3 ovarian
  GI50: 3.29 µM
  TGI: 16.5 µM
SN12C renal
  GI50: 3.6 µM
  TGI: 17 µM
SF-268 CNS
  GI50: 0.204 µM
  TGI: 0.857 µM
U251 glioblastoma
  GI50: 3.9 µM
  TGI: 17 µM
HCT-15 colon
  GI50: 1.25 µM
  TGI: 15 µM
OVCAR-5 ovarian
  GI50: 12.4 µM
  TGI: 25.6 µM
HCC-2998 colon
  GI50: 2.46 µM
  TGI: 8.76 µM
SNB-75 CNS
  GI50: 4.17 µM
  TGI: 15.3 µM
RPMI-8226 leukemia
  GI50: 1.29 µM
  TGI: 10.5 µM

Reference: PubChem BioAssay (NCI)
